Data from article PMC8347595, “N-Skatyltryptamines—Dual 5-HT6R/D2R Ligands with Antipsychotic and Procognitive Potential” (Molecules, 2021).

Tests used:
[1] = Metabolic stability, incubation with mouse liver microsomes; type: in vitro ADME; conditions: MLMs, 50 µM, 2 h
Experimental: The murine liver microsomes (MLMs) were purchased from Sigma-Aldrich (St. Louis, MO, USA). To determine metabolic pathways, the tested compounds (50 µM) were incubated with 100 mM Tris-HCl buffer at 37 °C with MLMs (1 mg/mL) and NADPH Regeneration System for 2 h. Reactions were quenched with cold, pure methanol and mixtures were centrifuged 14,000 g for 15 min. The supernatants were analyzed using LCMS. The additional MS ion fragmentation of the product and the substrate were performed to determine the most probable structure of the metabolite.

HepG2 cell line = assay: Hepatotoxicity assay, HepG2 viability; type: cell-based; conditions: 1 μM, 72 h
Experimental: To estimate the hepatotoxicity of compounds, the hepatoma HepG2 (ATCC® HB-8065TM) cell line was used according to previously described protocols. The CellTiter 96® AQueous Non-Radioactive Cell Proliferation Assay was obtained from Promega (Madison, WI, USA). The compounds were tested in quadruplicate at four concentrations (1–100 µM) for 72 h.

Male CD1 mice [2] = assay: Novel object recognition (NOR) test, MK-801-induced memory impairment; type: in vivo; conditions: i.p., MK-801 0.3 mg/kg
Experimental: (§1) Animals. Male CD1 mice (Charles River, Germany) weighing 20–25 g at the time of arrival were used in behavioral experiments. Animals were kept under standard laboratory conditions (12:12 light: dark cycle, 22 ± 2 °C) with free access to food and water. Animal welfare has been regularly controlled by a veterinarian and animal welfare committee. After two weeks of acclimatization and handling, the experiments began. Experimental groups consisted of four to 10 animals, depending on the procedure. Drugs were administered intraperitoneally (i.p.) at a volume of 10 mL/kg. Experimental assessments were performed by an observer who was blinded to the treatment conditions. All procedures were conducted in accordance with the European Communities Council Directive of 22 September 2010 (2010/63/EU) and Polish legislation acts concerning animal experimentation and were approved by the II Local Ethics Committee by the Maj Institute of Pharmacology, Polish Academy of Sciences in Krakow (272/2019).
(§2) Drugs. MK-801 was purchased from Tocris Bioscience, Bristol, UK. MK-801 was dissolved in 0.9% NaCl. Compounds 15 and 18 were dissolved in 0.9% NaCl. All compounds were administered intraperitoneally (i.p.) in a volume of 10 mL/kg. Vehicle-treated animals received appropriate solvents. Vehicle was administered to animals in any case when drug administration was omitted (e.g., control or MK-801-treated groups).
This procedure was adapted from Nilsson et al. (2007) and performed as described in a previous paper by Cieslik et al. (2018). Habituation, training, and test trials were performed in a black plastic rectangular arena (40 × 30 × 35 cm) illuminated with a light intensity of 335 lux. During the habituation trial (two consecutive days), each animal was allowed to explore the arena for 10 min. The next day, during the training trial (T1), mice were placed in the arena and presented with two identical objects (red glass cylinder; 6.5 cm in diameter and 4.5 cm high) for 5 min. After 1 h, animals were placed back into the arena for a 5 min test trial, during which one of the previously presented familiar objects was replaced with a novel object (a transparent glass elongated sphere-like object with an orange cap; 5.5 cm in diameter and 8.5 cm high). Time spent exploring (i.e., sniffing or touching) the familiar (Tfamiliar) and novel (Tnovel) objects was measured by a trained observer, and the recognition index [%] was calculated for each mouse [(Tnovel − Tfamiliar)/(Tfamiliar + Tnovel)] × 100. Compounds were administered 30 min before MK-801 (0.3 mg/kg), which was administered 30 min before training trial.

Male CD1 mice [3] = assay: Spontaneous locomotor activity of mice; type: in vivo; conditions: i.p.; for Ambulation Scores ± SEM: 60 min, n = 5; for effect on spontaneous locomotor activity in words: all tested doses
Experimental: Mice were placed separately into activity cages for an acclimatization period of 30 min, then they were injected i.p. with compound 15 (0.5, 1, and 3 mg/kg) or compound 18 (0.05, 0.1, 0.5, 1, and 3 mg/kg, respectively. After a further 30 min, they were injected with saline (10 mL/kg). From this point on, the ambulation scores were measured for 60 min. The data are presented as mean ± SEM, n = 5 mice per group. Data were analyzed with one-way ANOVA and Dunnett’s post-hoc. 15: F(3,16) = 1.225, p = 0.333; 18: F(5,24) = 0.791, p = 0.567.
as §1, §2
The locomotor activity was recorded individually for each animal in the OPTO-M3 locomotor activity cages described above. Each cage was surrounded with an array of photocell beams. […] Mice were placed separately into activity cages for an acclimatization period of 30 min, then were injected i.p. with compound 15 (0.5, 1, 3 mg/kg) compound 18 (0.05, 0.1, 0.5, 1, 3 mg/kg. After a further 30 min, they were injected with saline (10 mL/kg). From this point on, the ambulation scores were measured for 60 min.

in vitro = conditions: PAMPA, pH 7.4
5-HT6R = 5-HT6R (Homo sapiens, UniProt P50406); assay: Radioligand binding assay, [3H]-LSD displacement
5-HT6R, sequence (P50406 whole entry): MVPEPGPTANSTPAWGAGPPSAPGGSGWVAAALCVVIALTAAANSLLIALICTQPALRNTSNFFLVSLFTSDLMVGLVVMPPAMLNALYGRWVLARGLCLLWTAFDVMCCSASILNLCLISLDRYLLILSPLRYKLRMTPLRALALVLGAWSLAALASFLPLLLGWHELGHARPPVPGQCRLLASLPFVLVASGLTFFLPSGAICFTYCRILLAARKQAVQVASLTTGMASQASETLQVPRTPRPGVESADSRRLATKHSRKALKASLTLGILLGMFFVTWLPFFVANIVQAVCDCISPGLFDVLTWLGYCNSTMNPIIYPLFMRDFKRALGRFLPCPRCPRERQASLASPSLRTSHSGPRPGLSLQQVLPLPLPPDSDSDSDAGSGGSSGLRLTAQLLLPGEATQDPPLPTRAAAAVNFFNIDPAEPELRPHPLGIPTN

Human Serotonin 5-HT6R = biological target: T1, Human Serotonin 5-HT6R (Homo sapiens, UniProt P50406); assay: 5-HT6R functional assay, agonistic mode (cAMP, 1321N1 cells); type: cell-based
T1 construct: host or cells: 1321N1 (frozen recombinant cells)
T1 sequence (P50406 whole entry): as above
Experimental: The properties of compounds to inhibit cAMP production induced by a 5-HT6R agonist 5-CT (1000 nM) was evaluated. Compounds were tested in triplicate at eight concentrations (10^−11–10^−4 M). The level of cAMP was measured using frozen recombinant 1321N1 cells expressing the Human Serotonin 5-HT6R (PerkinElmer). Total cAMP was measured using the LANCE cAMP Detection Kit (PerkinElmer), according to the manufacturer’s instructions. For quantification of cAMP levels, 2000 cells/well ([…]) were incubated with a mixture of compounds ([…]) for 30 min at room temperature in a 384-well white opaque microtiter plate. After incubation, the reaction was stopped and cells were lysed by the addition of […] of working solution ([…] ULight-anti-cAMP) for 1 h at room temperature. Time-resolved fluorescence resonance energy transfer (TR-FRET) was detected by an Infinite M1000 Pro (Tecan) using instrument settings from the LANCE cAMP Detection Kit manual. […] The agonistic properties of compounds were determined with an analogous procedure, but without stimulation with 5-CT [10, 36].

| SMILES | Metabolic Pathway, metabolite M1 [1] | Metabolic Pathway, metabolite M2 [1] | effect on HepG2 proliferation in words (HepG2 cell line) | reversal of memory impairment induced by MK-801 in NOR test (Male CD1 mice [2]; 0.5 mg/kg) | reversal of memory impairment induced by MK-801 in NOR test (Male CD1 mice [2]; 1 mg/kg) | Ambulation Scores ± SEM (Male CD1 mice [3]; 0.5 mg/kg) | Ambulation Scores ± SEM (Male CD1 mice [3]; 1 mg/kg) | Ambulation Scores ± SEM (Male CD1 mice [3]; 3 mg/kg) | effect on spontaneous locomotor activity in words (Male CD1 mice [3]) | Papp at 5 h, 200 µM (in vitro) | Ki (5-HT6R; Ki 5-HT6, Figure 8) | Ki (5-HT6R; pKi 5-HT6, Table 1) | 5-HT6R function in words (agonism) (Human Serotonin 5-HT6R) | EC50 (Human Serotonin 5-HT6R) | reversal of memory impairment induced by MK-801 in NOR test (Male CD1 mice [2]; 0.1 mg/kg) | Ambulation Scores ± SEM (Male CD1 mice [3]; 0.05 mg/kg) | Ambulation Scores ± SEM (Male CD1 mice [3]; 0.1 mg/kg) | PAMPA Pe ± SD (PAMPA permeability assay; 200 µM, PBS pH 7.4, 5 h, triplicate) | Papp at 5 h, 200 µM (PAMPA permeability assay; PAMPA, pH 7.4) | permeability in words (PAMPA permeability assay; compared to caffeine and norfloxacin) |
| --- | --- | --- | --- | --- | --- | --- | --- | --- | --- | --- | --- | --- | --- | --- | --- | --- | --- | --- | --- | --- |
| Brc1ccc2c(CNCCc3c[nH]c4ccccc34)c[nH]c2c1 [Compound 15] | hydroxylation hydroxylation | hydroxylation hydroxylation | a proliferative effect was observed, but it was not statistically significant | reversed memory impairment | reversed memory impairment | 134.9 ± 11.13 | 124.7 ± 21.75 | 91.8 ± 24.61 | did not affect the locomotor activity of mice | 2.42 ± 0.92 ×10⁻⁶ cm/s | 102 nM | 102 nM | – | – | – | – | – | – | – | – |
| Brc1cccc2c(CNCCc3c[nH]c4ccccc34)c[nH]c12 [Compound 18] | hydroxylation hydroxylation | hydroxylation hydroxylation | a proliferative effect was observed, but it was not statistically significant | reversed memory impairment | reversed memory impairment | 116.7 ± 13.23 | 85.31 ± 15.86 | 87.79 ± 20.89 | did not influence the spontaneous locomotor activity of mice | – | 449 nM | 447 nM | agonist | 77 nM | reversed memory impairment | 113.6 ± 34.00 | 131.8 ± 19.50 | 3.90 10^−6 cm/s | 3.9 ± 0.56 ×10⁻⁶ cm/s | rather low Pe value but still higher than norfloxacin |
